Assay results reported in ChEMBL document CHEMBL5576053, “Nonclassical Zwitterions as a Design Principle to Reduce Lipophilicity without Impacting Permeability” (J Med Chem, 2024).

Assays:
Assay type in all cases: physicochemical
[1] = Basic ionization constant, pKa of the compound
[2] = Acidic ionization constant, pKa of the compound
[3] = Ionization constant, pKa of compound at pH 1 to 5
[4] = Ionization constant, pKa of compound at pH 5 to 10
[5] = 1-octanol/water partition coefficient, acidic logP of compound by shake flask method
[6] = Acidic ionization constant, pKa of the compound by potentiometric titration analysis
[7] = Ionization constant, pKa of compound

Row | Structure (SMILES) | pKa [1] | pKa [2] | also measured
1 | COc1ccnc(C(=O)NC2CCCCC2)c1O | 2.3 | 9.1 | 
2 | CNC(=O)c1ccccc1O |  | 8 | 
3 | CC(C)(C)NC(=O)c1ccccn1 | 2.1 |  | 
4 | O=C(NC1CCCCC1)c1nccc(Cl)c1O | < 2 | 6.8 | 
5 | Cc1ccnc(C(=O)NC2CCCCC2)c1O | < 2 | 8.5 | 
6 | CCOC(=O)CNC(=O)c1ncccc1O | 2.2 |  | 
7 | O=C(NC1CCCCC1)c1ncccc1O | 2.2 |  | 
8 | CC(C)CCNC(=O)c1ncccc1O | 2.3 | 7.9 | pKa [3]: 2.4; pKa [4]: 7.85
9 | COc1cccc(CNC(=O)c2ncccc2OC)c1 | 2.9 |  | 
10 | CCCC1C(=O)N2C(N(C)C)=Nc3ccc(C)cc3N2C1=O (stereo unspecified) [APAZONE] | < 2 |  | 
11 | Cc1cc(NC(=O)C2=C(O)c3ccccc3S(=O)(=O)N2C)no1 [ISOXICAM] | < 2 |  | 
12 | N[C@@H](Cc1cc(I)c(Oc2cc(I)c(O)c(I)c2)c(I)c1)C(=O)O [LEVOTHYROXINE] |  |  | logP [5]: 5.4
13 | N[C@@H](Cc1cc(I)c(Oc2ccc(O)c(I)c2)c(I)c1)C(=O)O [LIOTHYRONINE] |  |  | logP [5]: 4.1
14 | CN1C(C(=O)Nc2ccccn2)=C(O)c2sc(Cl)cc2S1(=O)=O [LORNOXICAM] | < 2 |  | 
15 | NC(=O)c1ncn([C@@H]2O[C@H](CO)[C@@H](O)[C@H]2O)c1O [MIZORIBINE] |  |  | pKa [6]: 6.5
16 | CN1C(C(=O)Nc2ccccn2)=C(O)c2ccccc2S1(=O)=O [PIROXICAM] |  |  | logP [5]: 4
17 | Cc1ncc(CO)c(CO)c1O [PYRIDOXINE] |  |  | pKa [7]: 5
18 | CCc1cc(/C(C)=N/OCc2ccc(C3CCCCC3)c(C(F)(F)F)c2)ccc1CN1CC(C(=O)O)C1 [SIPONIMOD] |  |  | logP [5]: 8.9
19 | CN1C(C(=O)Nc2nccs2)=C(O)c2ccccc2S1(=O)=O [SUDOXICAM] | < 2 | 3.1 | 
